What all share (experiment): Kinase inhibitor library screening, PrestoBlue cell viability, 1 or 10 μM, 72 h
The subject of data set [1] is IGR37-GP cells (Dabrafenib-resistant). To be noted: for viability at 1 µM / viability at 10 µM: Homo sapiens, IGR-37, 72 h; for viability at 1 µM: read-out: cell viability, IGR37 GP, 1μΜ; for viability at 10 µM: read-out: cell viability, IGR37 GP, 10μΜ.
A further data set has as its system IGR37 cells (parental). To be noted: for viability at 1 µM / viability at 10 µM: Homo sapiens, IGR-37, 72 h; for viability at 1 µM: read-out: cell viability, IGR37 Parental, 1μΜ; for viability at 10 µM: read-out: cell viability, IGR37 Parental, 10μΜ.
The next data set deals with 501Mel cells (parental). To be noted: 72 h; for viability at 1 µM / viability at 10 µM: Homo sapiens; for viability at 1 µM: read-out: cell viability, 501Mel Parental, 1μΜ; for viability at 10 µM: read-out: cell viability, 501Mel Parental, 10μΜ. The method, boiled down: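 Normalised to untreated controls, viability percentages came from PrestoBlue measured on a microplate reader following 72 h incubation with drug. Each line was assayed at least twice.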

In data set [2] the test system is IGR37-XP cells (Vemurafenib-resistant). Conditions: for viability at 1 µM / viability at 10 µM: Homo sapiens, IGR-37, 72 h; for viability at 1 µM: read-out: cell viability, IGR37 XP, 1μΜ; for viability at 10 µM: read-out: cell viability, IGR37 XP, 10μΜ.
Data set [3] relates to A375-GP cells (Dabrafenib-resistant). Conditions: for viability at 1 µM / viability at 10 µM: Homo sapiens, A-375, 72 h; for viability at 1 µM: read-out: cell viability, A375 GP, 1μΜ; for viability at 10 µM: read-out: cell viability, A375 GP, 10μΜ.
Data set [4] concerns 501Mel-XP cells (Vemurafenib-resistant). To be noted: 72 h; for viability at 1 µM / viability at 10 µM: Homo sapiens; for viability at 1 µM: read-out: cell viability, 501Mel XP, 1μΜ; for viability at 10 µM: read-out: cell viability, 501Mel XP, 10μΜ.
The test system of data set [5] is 501Mel-GP cells (Dabrafenib-resistant). Conditions: 72 h; for viability at 1 µM / viability at 10 µM: Homo sapiens; for viability at 1 µM: read-out: cell viability, 501Mel GP, 1μΜ; for viability at 10 µM: read-out: cell viability, 501Mel GP, 10μΜ.
Data set [6] relates to A375-XP cells (Vemurafenib-resistant). To be noted: for viability at 1 µM / viability at 10 µM: Homo sapiens, A-375, 72 h; for viability at 1 µM: read-out: cell viability, A375 XP, 1μΜ; for viability at 10 µM: read-out: cell viability, A375 XP, 10μΜ.
A further data set relates to A375 cells (parental). To be noted: for viability at 1 µM / viability at 10 µM: Homo sapiens, A-375, 72 h; for viability at 1 µM: read-out: cell viability, A375 Parental, 1μΜ; for viability at 10 µM: read-out: cell viability, A375 Parental, 10μΜ.

As to `CCN(CC)CCCCNc1ncc2cc(-c3cc(OC)cc(OC)c3)c(NC(=O)NC(C)(C)C)nc2n1` [PD173074], the viability at 1 µM in data set [1] stood at 91.4%; in the data set with IGR37 cells (parental), 99.8%; with 501Mel cells (parental), 103%; in data set [2], 92.2%; in [3], 98.2%; in [4], 97.2%. Further, the viability at 1 µM in data set [5] stood at 106%; in [6] it was 100%; in the data set on A375 cells (parental) it was 105%. The viability at 10 µM in data set [1] was 50%; in the data set with IGR37 cells (parental), 75.6%; in the data set on 501Mel cells (parental), 11.8%; in [2], 14.7%; in data set [3] it was 62.8%; in data set [4], -0.025%. Moreover, the viability at 10 µM in data set [5] came to 13.2%; in [6], 72%; in the data set with A375 cells (parental) it was 70.1%.
`O=C(NOCC(O)CO)c1cc(Br)c(F)c(F)c1Nc1ccc(I)cc1F` (stereo not shown) [PD318088]: in data set [1] (IGR37 GP, 10μΜ, 72 h), the cell viability, IGR37 GP, 10μΜ is 66.4%. The “cell viability, IGR37 GP, 1μΜ” value in [1] (IGR37 GP, 1μΜ, 72 h, in %) is on record as 76.0. Also, the “cell viability, IGR37 Parental, 1μΜ” value in the data set with IGR37 cells (parental) (IGR37 Parental, 1μΜ, 72 h, in %) came out at 37.8. The “cell viability, IGR37 Parental, 10μΜ” value in the data set with IGR37 cells (parental) (IGR37 Parental, 10μΜ, 72 h, in %) is reported as 36.8. Also, the “cell viability, 501Mel Parental, 1μΜ” value with 501Mel cells (parental) (501Mel Parental, 1μΜ, in %) is 54.5. The “cell viability, 501Mel Parental, 10μΜ” value with 501Mel cells (parental) (501Mel Parental, 10μΜ, in %) is reported as 54.4. For the same molecule, the cell viability, IGR37 XP, 10μΜ in data set [2] (IGR37 XP, 10μΜ, 72 h) was found to be 22.8%. Further, the “cell viability, IGR37 XP, 1μΜ” value in data set [2] (IGR37 XP, 1μΜ, 72 h, in %) is reported as 63.3. In data set [3] (A375 GP, 1μΜ, 72 h, in %), the “cell viability, A375 GP, 1μΜ” value is on record as 31.6. Moreover, the “cell viability, A375 GP, 10μΜ” value in [3] (A375 GP, 10μΜ, 72 h, in %) came out at 15.6. Moreover, the “cell viability, 501Mel XP, 1μΜ” value in data set [4] (501Mel XP, 1μΜ, in %) is reported as 84.8. Moreover, in data set [4] (501Mel XP, 10μΜ, in %), the “cell viability, 501Mel XP, 10μΜ” value is reported as 57.7. Besides, in [5] (501Mel GP, 1μΜ, in %), the “cell viability, 501Mel GP, 1μΜ” value came out at 99.4. Further, in data set [5] (501Mel GP, 10μΜ, in %), the “cell viability, 501Mel GP, 10μΜ” value was found to be 79.2. For the same molecule, in data set [6] (A375 XP, 1μΜ, 72 h, in %), the “cell viability, A375 XP, 1μΜ” value came out at 36.7. Moreover, the “cell viability, A375 XP, 10μΜ” value in [6] (A375 XP, 10μΜ, 72 h, in %) was 11.2. For the same molecule, in the data set on A375 cells (parental) (A375 Parental, 1μΜ, 72 h, in %), the “cell viability, A375 Parental, 1μΜ” value was found to be 19.2. For the same molecule, the “cell viability, A375 Parental, 10μΜ” value in the data set with A375 cells (parental) (A375 Parental, 10μΜ, 72 h, in %) is recorded as 16.4.
Regarding `O=C(NOC[C@H](O)CO)c1ccc(F)c(F)c1Nc1ccc(I)cc1F` [PD0325901], the viability at 1 µM in data set [1] turned out to be 76.5%; in the data set with IGR37 cells (parental) it was 34.5%; in the data set on 501Mel cells (parental) it was 56.4%; in [2], 58.6%; in data set [3] it was 12.6%; in [4], 72%. For the same molecule, the viability at 1 µM in data set [5] came out at 87.8%; in data set [6] it was 11.5%; in the data set with A375 cells (parental), 17.6%. In addition, the viability at 10 µM is 46.2% in data set [1]; 35.2% with IGR37 cells (parental); 64.3% in the data set on 501Mel cells (parental); 15.7% in data set [2]; 13.1% in [3]; 54.1% in [4]. Also, the viability at 10 µM in data set [5] was determined as 66.1%; in data set [6] it was 11.4%; in the data set on A375 cells (parental), 17.5%.
With `CC(=O)c1c(C)c2cnc(Nc3ccc(N4CCNCC4)cn3)nc2n(C2CCCC2)c1=O.Cl` [PD 0332991 (Palbociclib) HCl], the “cell viability (kinase inhibitor library screening)” value in [1] (IGR37 GP, 10μΜ, 72 h) worked out at 78.0%; with IGR37 cells (parental) (IGR37 Parental, 1μΜ, 72 h), 96.5%; in the data set with 501Mel cells (parental) (501Mel Parental, 1μΜ) it was 89.7%; with 501Mel cells (parental) (501Mel Parental, 10μΜ), 80.1%; in [2] (IGR37 XP, 1μΜ, 72 h), 98.1%; in data set [2] (IGR37 XP, 10μΜ, 72 h), 28.9%. For the same molecule, the “cell viability (kinase inhibitor library screening)” value in [3] (A375 GP, 1μΜ, 72 h) was found to be 77.9%; in data set [3] (A375 GP, 10μΜ, 72 h), 57.2%; in data set [4] (501Mel XP, 1μΜ), 76.9%; in [4] (501Mel XP, 10μΜ), 25.1%; in data set [5] (501Mel GP, 1μΜ), 83.8%; in [5] (501Mel GP, 10μΜ), 66.3%. The “cell viability (kinase inhibitor library screening)” value in data set [6] (A375 XP, 1μΜ, 72 h) is listed as 74.5%; in data set [6] (A375 XP, 10μΜ, 72 h), 63.1%; with A375 cells (parental) (A375 Parental, 10μΜ, 72 h), 59.1%; in the data set on A375 cells (parental) (A375 Parental, 1μΜ, 72 h), 78.9%.

Source of the values: publication PMC6364417, “Kinase inhibitor library screening identifies synergistic drug combinations effective in sensitive and resistant melanoma cells” (Journal of Experimental & Clinical Cancer Research : CR, 2019).
